The assay has as its target T1, SIRT1 (Homo sapiens, UniProt Q96EB6).
T1 sequence (Q96EB6 1-747): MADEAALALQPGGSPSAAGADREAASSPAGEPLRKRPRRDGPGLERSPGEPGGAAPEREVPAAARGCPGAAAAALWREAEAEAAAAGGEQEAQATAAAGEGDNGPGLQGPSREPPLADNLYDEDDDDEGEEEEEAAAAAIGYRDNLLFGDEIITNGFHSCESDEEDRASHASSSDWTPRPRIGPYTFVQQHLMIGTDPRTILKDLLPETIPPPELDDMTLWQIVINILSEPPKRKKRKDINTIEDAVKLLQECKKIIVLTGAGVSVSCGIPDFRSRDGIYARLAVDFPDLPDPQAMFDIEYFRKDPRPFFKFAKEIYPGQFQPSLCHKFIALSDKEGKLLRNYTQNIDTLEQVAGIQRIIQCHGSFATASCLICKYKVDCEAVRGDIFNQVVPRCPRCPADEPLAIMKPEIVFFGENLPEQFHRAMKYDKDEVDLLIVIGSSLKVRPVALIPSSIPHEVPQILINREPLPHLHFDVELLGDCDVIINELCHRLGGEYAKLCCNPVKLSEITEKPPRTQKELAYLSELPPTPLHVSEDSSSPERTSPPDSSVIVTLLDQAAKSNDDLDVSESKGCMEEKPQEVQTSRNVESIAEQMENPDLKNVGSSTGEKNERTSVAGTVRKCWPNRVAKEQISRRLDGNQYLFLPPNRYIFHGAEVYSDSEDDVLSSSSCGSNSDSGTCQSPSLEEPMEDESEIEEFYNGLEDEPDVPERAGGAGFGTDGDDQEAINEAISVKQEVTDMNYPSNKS
As to the kind of experiment: Mass spectrometry based SIRT1 deacetylase activation assay. It is filed as biochemical. The note with it: for Emax: 25 min, mass spectrometry assay, read-out: % Fold Act. (percent maximum fold activation); for EC1.5 μM: 0.5 μM peptide substrate, 120 μM βNAD+, 10 nM SIRT1, 25 min, 25° C. The text has this:
A mass spectrometry based assay was used to identify modulators of SIRT1 activity. The mass spectrometry based assay utilizes a peptide having 20 amino acid residues as follows: Ac-EE-K(biotin)-GQSTSSHSK(Ac)NleSTEG-K(5TMR)-EE-NH2 (SEQ ID NO: 1) wherein K(Ac) is an acetylated lysine residue and Nle is a norleucine. The peptide is labeled with the fluorophore 5TMR (excitation 540 nm/emission 580 nm) at the C-terminus. The sequence of the peptide substrate is based on p53 with several modifications. In addition, the methionine residue naturally present in the sequence was replaced with the norleucine because the methionine may be susceptible to oxidation during synthesis and purification.
The mass spectrometry assay is conducted as follows: 0.5 μM peptide substrate and 120 μM βNAD^+ is incubated with 10 nM SIRT1 for 25 minutes at 25° C. in a reaction buffer (50 mM Tris-acetate pH 8, 137 mM NaCl, 2.7 mM KCl, 1 mM MgCl2, 5 mM DTT, 0.05% BSA). Test compounds may be added to the reaction as described above. […] After the 25 minute incubation with SIRT1, 10 μL of 10% formic acid is added to stop the reaction. Reactions are sealed and frozen for later mass spec analysis. Determination of the mass of the substrate peptide allows for precise determination of the degree of acetylation (i.e. starting material) as compared to deacetylated peptide (product).
A control for inhibition of sirtuin activity is conducted by adding 1 μL of 500 mM nicotinamide as a negative control at the start of the reaction (e.g., permits determination of maximum sirtuin inhibition). A control for activation of sirtuin activity is conducted using 10 nM of sirtuin protein, with 1 μL of DMSO in place of compound, to determine the amount of deacetylation of the substrate at a given timepoint within the linear range of the assay. This timepoint is the same as that used for test compounds and, within the linear range, the endpoint represents a change in velocity.
For the above assay, SIRT1 protein was expressed and purified as follows. […] The protein was expressed by induction with 1 mM IPTG as an N-terminal His-tag fusion protein at 18° C. overnight and harvested at 30,000×g. Cells were lysed with lysozyme in lysis buffer (50 mM Tris-HCl, 2 mM Tris[2-carboxyethyl]phosphine (TCEP), 10 μM ZnCl2, 200 mM NaCl) and further treated with sonication for 10 min for complete lysis. The protein was purified over a Ni-NTA column (Amersham) and fractions containing pure protein were pooled, concentrated and run over a sizing column (Sephadex S200 26/60 global). The peak containing soluble protein was collected and run on an Ion-exchange column (MonoQ). Gradient elution (200 mM-500 mM NaCl) yielded pure protein. This protein was concentrated and dialyzed against dialysis buffer (20 mM Tris-HCl, 2 mM TCEP) overnight. The protein was aliquoted and frozen at −80° C. until further use.

In the case of `Cc1cnc(NC(=O)c2cccc3c(=O)cc(-c4ccccc4Br)oc23)s1` [Compound 236], the Emax was under 200%. `Cc1cnc(NC(=O)c2cccc3c(=O)cc(-c4cccc(Br)c4)oc23)s1` [Compound 237]: the Emax was under 200%. As for `Cc1cnc(NC(=O)c2cccc3c(=O)cc(-c4ccccn4)oc23)s1` [Compound 238], the “EC1.5 μM” value is given as “C (EC1.5>25 μM)” and the Emax is under 200%. On the same counts, the results for `Cc1cnc(NC(=O)c2cccc3c(=O)cc(-c4cccnc4)oc23)s1` [Compound 239] are “C (EC1.5>25 μM)” and under 200%. As to `O=C(Nc1cccc2c(=O)cc(-c3ccccc3N3CCOCC3)oc12)c1cscn1` [Compound 240], the “EC1.5 μM” value is “B (EC1.5 1-25 μM)” and the Emax is over 200%. Take `CS(=O)(=O)c1ccccc1-c1cc(=O)c2cccc(NC(=O)c3ccccn3)c2o1` [Compound 241]: the “EC1.5 μM” value is “B (EC1.5 1-25 μM)” and the Emax is over 200%.

On to `CS(=O)(=O)c1cccc(-c2cc(=O)c3cccc(NC(=O)c4cccnc4)c3o2)c1` [Compound 242], for which the “EC1.5 μM” value is on record as “C (EC1.5>25 μM)” and the Emax was under 200%. Turning to `O=C(Nc1cccc(CN2CCCC2)n1)c1cccc2c(=O)cc(-c3cccc(C(F)(F)F)c3)oc12` [Compound 243, 4-oxo-N-(6-(pyrrolidin-1-ylmethyl)pyridin-2-yl)-2-(3-(trifluoromethyl)phenyl)-4H-chromene-8-carboxamide], the “EC1.5 μM” value is given as “B (EC1.5 1-25 μM)” and the Emax was over 200%.

Take `O=C(Nc1cccc2c(=O)cc(-c3cccc(C(F)(F)F)c3)oc12)c1cccc(OC[C@@H](O)CO)n1` [Compound 244]: the “EC1.5 μM” value is reported as “B (EC1.5 1-25 μM)” and the Emax is over 200%. Turning to `O=C(Nc1cccc2c(=O)cc(-c3cccc(C(F)(F)F)c3)oc12)c1ccnc(OC[C@@H](O)CO)c1` [Compound 245], the “EC1.5 μM” value is recorded as “C (EC1.5>25 μM)” and the Emax was under 200%.

With `O=C(Nc1cccc2c(=O)cc(-c3cccc(C(F)(F)F)c3)oc12)c1cccnc1OC[C@@H](O)CO` [Compound 246], the “EC1.5 μM” value is reported as “B (EC1.5 1-25 μM)” and the Emax is under 200%. On the same counts, the results for `O=C(Nc1cccc2c(=O)cc(-c3cccc(C(F)(F)F)c3)oc12)c1ccc(OC[C@@H](O)CO)nc1` [Compound 247] are “C (EC1.5>25 μM)” and under 200%.

With `Cc1cnc(NC(=O)c2cccc3c(=O)cc(-c4ccncc4)oc23)s1` [Compound 248, N-(5-methylthiazol-2-yl)-4-oxo-2-(pyridin-4-yl)-4H-chromene-8-carboxamide], the “EC1.5 μM” value is “C (EC1.5>25 μM)” and the Emax was under 200%. In the same order, the values of `CS(=O)(=O)c1ccc(-c2cc(=O)c3cccc(NC(=O)c4ccccn4)c3o2)cc1` [Compound 249] are “C (EC1.5>25 μM)” and under 200%. `Cn1ccnc1C(=O)Nc1cccc2c(=O)cc(-c3ccccc3C(F)(F)F)oc12` [Compound 250]: the “EC1.5 μM” value was “A (EC1-5<1.0)” and the Emax was over 200%. Turning to `O=C(Nc1cccc2c(=O)cc(-c3ccccc3C(F)(F)F)oc12)c1ccccn1` [Compound 251], the “EC1.5 μM” value was “A (EC1-5<1.0)” and the Emax is over 200%. For `O=C(Nc1cccc2c(=O)cc(-c3ccccc3C(F)(F)F)oc12)c1ncccn1` [Compound 252], the “EC1.5 μM” value is “A (EC1-5<1.0)” and the Emax was over 200%.

As to `O=C(Nc1cccc2c(=O)cc(-c3ccccc3C(F)(F)F)oc12)c1ccncn1` [Compound 253], the “EC1.5 μM” value was “A (EC1-5<1.0)” and the Emax is over 200%.

For the molecule `COc1ccccc1-c1cc(=O)c2cccc(NC(=O)c3cnccn3)c2o1` [Compound 254], the “EC1.5 μM” value is “C (EC1.5>25 μM)” and the Emax is under 200%.

Turning to `COc1ccccc1-c1cc(=O)c2cccc(NC(=O)c3cscn3)c2o1` [Compound 255], the “EC1.5 μM” value is “C (EC1.5>25 μM)” and the Emax was under 200%. As to `Cn1cnc(C(=O)Nc2cccc3c(=O)cc(-c4ccccc4C(F)(F)F)oc23)c1` [Compound 256], the “EC1.5 μM” value is “A (EC1-5<1.0)” and the Emax was over 200%. As to `Cn1nccc1C(=O)Nc1cccc2c(=O)cc(-c3ccccc3C(F)(F)F)oc12` [Compound 257], the “EC1.5 μM” value is “A (EC1-5<1.0)” and the Emax was over 200%. Turning to `O=C(Nc1cccc2c(=O)cc(-c3ccccc3C(F)(F)F)oc12)c1ccncc1` [Compound 258], the “EC1.5 μM” value is listed as “B (EC1.5 1-25 μM)” and the Emax was over 200%.

Take `Cn1ccc(C(=O)Nc2cccc3c(=O)cc(-c4ccccc4C(F)(F)F)oc23)n1` [Compound 259]: the “EC1.5 μM” value is “B (EC1.5 1-25 μM)” and the Emax is over 200%. On to `O=C(Nc1cccc2c(=O)cc(-c3ccccc3C(F)(F)F)oc12)c1cncnc1` [Compound 260], for which the “EC1.5 μM” value is reported as “C (EC1.5>25 μM)” and the Emax is under 200%. For the molecule `O=C(Nc1cccc2c(=O)cc(-c3ccccc3C(F)(F)F)oc12)c1cnccn1` [Compound 261], the “EC1.5 μM” value was “A (EC1-5<1.0)” and the Emax was over 200%. As for `O=C(Nc1cccc2c(=O)cc(-c3ccccc3C(F)(F)F)oc12)c1cccnc1` [Compound 262], the “EC1.5 μM” value is given as “B (EC1.5 1-25 μM)” and the Emax was under 200%. In the case of `O=C(Nc1cccc2c(=O)cc(-c3ccccc3OC(F)F)oc12)c1cnccn1` [Compound 263], the “EC1.5 μM” value is “C (EC1.5>25 μM)” and the Emax was under 200%. On the same counts, the results for `O=C(Nc1cccc2c(=O)cc(-c3ccccc3OC(F)F)oc12)c1cscn1` [Compound 264] are “C (EC1.5>25 μM)” and under 200%.

Take `CS(=O)(=O)c1ccccc1-c1cc(=O)c2cccc(NC(=O)c3cnccn3)c2o1` [Compound 265]: the “EC1.5 μM” value is “C (EC1.5>25 μM)” and the Emax is under 200%. In the same order, the values of `CS(=O)(=O)c1ccccc1-c1cc(=O)c2cccc(NC(=O)c3cscn3)c2o1` [Compound 266] are “B (EC1.5 1-25 μM)” and under 200%. As to `O=C(Nc1cccc2c(=O)cc(-c3ccccc3C(F)(F)F)oc12)c1cncs1` [Compound 267], the “EC1.5 μM” value was “B (EC1.5 1-25 μM)” and the Emax was over 200%. As to `Cc1ncoc1C(=O)Nc1cccc2c(=O)cc(-c3ccccc3C(F)(F)F)oc12` [Compound 268], the “EC1.5 μM” value was “A (EC1-5<1.0)” and the Emax is over 200%. In the same order, the values of `Cn1cc(C(=O)Nc2cccc3c(=O)cc(-c4ccccc4C(F)(F)F)oc23)cn1` [Compound 269] are “B (EC1.5 1-25 μM)” and over 200%. On the same counts, the results for `Cc1cnc(NC(=O)c2cccc3c(=O)cc(-c4ccccc4Cl)oc23)s1` [Compound 270] are “C (EC1.5>25 μM)” and under 200%. For `Cc1cnc(NC(=O)c2cccc3c(=O)cc(-c4ccccc4F)oc23)s1` [Compound 271], the “EC1.5 μM” value was “C (EC1.5>25 μM)” and the Emax is under 200%.

Values taken from patent publication US8987258B2 (priority 2008, dated 2015).
